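How tested: cells in 96-well plates exposed to compound for 48 hours at five concentrations. GI50 = concentration required for 50% inhibition of growth.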 Calls of active or inactive are those of the source. Rule as the data show it: active = GI50 up to about 1.1 µM and inactive = higher.
Tests used:
Experiment in all cases: DTP human tumour cell line panel, 48 h
SK-MEL-5 = tested on: SK-MEL-5
A498 = tested on: A498
IGROV-1 = tested on: IGROV-1
ACHN = tested on: ACHN
KM12 = tested on: KM12
CAKI-1 = tested on: CAKI-1
EKVX = tested on: EKVX
SF-268 = tested on: SF-268
MCF7 = tested on: MCF7
PC-3 = tested on: PC-3
SNB-19 = tested on: SNB-19
OVCAR-5 = tested on: OVCAR-5
DU-145 = tested on: DU-145
COLO 205 = tested on: COLO 205
A549 = tested on: A549
HOP-62 = tested on: HOP-62
NCI-H522 = tested on: NCI-H522
NCI-H460 = tested on: NCI-H460
NCI-H226 = tested on: NCI-H226
NCI/ADR-RES = tested on: NCI/ADR-RES

Measured: GI50

Nc1nc2ccc3ccccc3c2[nH]1
inactive: SK-MEL-5 > 10 µM | A498 > 10 µM | IGROV-1 > 10 µM | ACHN > 10 µM | KM12 > 10 µM | CAKI-1 > 10 µM | EKVX > 10 µM | SF-268 > 10 µM | MCF7 > 10 µM | PC-3 > 10 µM | SNB-19 > 10 µM | OVCAR-5 > 10 µM | DU-145 > 10 µM | COLO 205 > 10 µM | A549 > 10 µM | HOP-62 > 10 µM | NCI-H522 > 10 µM | NCI-H460 > 10 µM | NCI-H226 8.51 µM | NCI/ADR-RES > 10 µM

COc1ccc2c(O)c3[n+](cc2c1OC)CCc1cc2c(cc1-3)OCO2
inactive: SK-MEL-5 99.1 µM | A498 61.5 µM | IGROV-1 91.8 µM | ACHN > 100 µM | KM12 66.1 µM | CAKI-1 > 100 µM | EKVX > 100 µM | SF-268 > 100 µM | MCF7 56.2 µM | PC-3 > 100 µM | SNB-19 > 100 µM | OVCAR-5 > 100 µM | DU-145 > 100 µM | COLO 205 > 100 µM | A549 > 100 µM | HOP-62 > 100 µM | NCI-H522 17 µM | NCI-H460 79.4 µM | NCI-H226 > 100 µM | NCI/ADR-RES > 100 µM

C1CSCCSCCSCCSC1
inactive: SK-MEL-5 > 100 µM | A498 > 100 µM | IGROV-1 > 100 µM | ACHN > 100 µM | KM12 > 100 µM | CAKI-1 > 100 µM | EKVX > 100 µM | SF-268 > 100 µM | MCF7 > 100 µM | PC-3 > 100 µM | SNB-19 > 100 µM | OVCAR-5 > 100 µM | DU-145 > 100 µM | COLO 205 > 100 µM | A549 > 100 µM | HOP-62 > 100 µM | NCI-H522 > 100 µM | NCI-H460 > 100 µM | NCI-H226 > 100 µM | NCI/ADR-RES > 100 µM
